The values that follow come from US12565497B2 (Hoffmann-La Roche Inc., priority 2020, dated 2026).

Molecules are shown by their SMILES.

For this assay, the target named is Recombinant human Mat2a (Homo sapiens (Human), UniProt P31153). The experiment in a line: Determination of Mat2A activity (384 well absorbance-based assay, Biomol Green). In kind it is biochemical. The note with it: 12.5 nM Mat2A, 100 μM ATP and Methionine, 2% DMSO, 120 minutes at RT, absorbance at 635 nm; read-out: MAT2A_LEC IC50 (uM) (Num). The procedure: Determination of Mat2A Activity
Sequence of Recombinant human Mat2a (P31153 whole entry): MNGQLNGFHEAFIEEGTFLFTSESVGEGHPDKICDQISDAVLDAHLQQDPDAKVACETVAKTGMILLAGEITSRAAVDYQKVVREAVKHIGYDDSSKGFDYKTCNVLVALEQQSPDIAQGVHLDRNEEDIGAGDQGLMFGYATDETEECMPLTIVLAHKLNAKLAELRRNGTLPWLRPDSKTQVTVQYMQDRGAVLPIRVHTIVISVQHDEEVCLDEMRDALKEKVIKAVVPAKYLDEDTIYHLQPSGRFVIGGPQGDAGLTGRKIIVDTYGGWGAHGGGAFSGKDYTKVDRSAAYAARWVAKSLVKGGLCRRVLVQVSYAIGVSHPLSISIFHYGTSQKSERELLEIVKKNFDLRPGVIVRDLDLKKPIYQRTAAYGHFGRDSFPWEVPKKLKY
Measurement of Mat2A inhibition is performed in 384 well format absorbance-based assay. Recombinant human Mat2a (12.5 nM) and serial diluted compounds in DMSO (range of concentrations from 10 μM to 508 pM) or controls (DMSO) are incubated for 15 minutes at room temperature (RT) in assay buffer containing 50 mM HEPES pH 7.5, 50 mM KCl, 50 mM MgCl2, 0.01%Tween 20 and 10 mM DTT. The reaction is initiated by the addition of the combined substrates ATP and Methionine, each at a final concentration of 100 μM. Final assay condition are 12.5 nM Mat2A, 100 μM ATP and Methionine Substrates and 2% DMSO. After 120 minutes of incubation at RT, the reaction is stopped by the addition of Biomol Green. The absorbance signal is measured at λ=635 nm with a multiplate reader (BMG Pherastar reader or equivalent) after 30 min of equilibration at RT.
Turning to `Cc1cc(-c2nccc3[nH]nc(C4CC4)c23)ccc1S(C)(=O)=O` [Example 1, 3-cyclopropyl-4-(3-methyl-4-(methylsulfonyl)phenyl)-1H-pyrazolo[4,3-c]pyridine], the IC50 stood at 0.048 µM. The value for `COc1cc(-c2nccc3[nH]nc(C4CC4)c23)ccc1S(C)(=O)=O` [Example 2, 3-cyclopropyl-4-(3-methoxy-4-(methylsulfonyl)phenyl)-1H-pyrazolo[4,3-c]pyridine] was 0.37 µM; that for `CS(=O)(=O)c1ccc(-c2nccc3[nH]nc(C4CC4)c23)cc1Cl` [Example 3, 4-(3-chloro-4-(methylsulfonyl)phenyl)-3-cyclopropyl-1H-pyrazolo[4,3-c]pyridine] was 0.15 µM; that for `CS(=O)(=O)c1ccc(-c2nccc3[nH]nc(C4CC4)c23)cc1C(F)(F)F` [Example 4, 3-cyclopropyl-4-(4-(methylsulfonyl)-3-(trifluoromethyl)phenyl)-1H-pyrazolo[4,3-c]pyridine] was 0.24 µM.

Turning to `Cc1cc(-c2nccc3[nH]nc(C4CC4)c23)ccc1S(=O)(=O)N(C)C` [Example 5, 4-(3-cyclopropyl-1H-pyrazolo[4,3-c]pyridin-4-yl)-N,N,2-trimethylbenzenesulfonamide], the half-maximal inhibitory concentration (IC50) turned out to be 0.17 µM.

In the case of `COc1ncc2[nH]nc(C3CC3)c2c1-c1ccc(S(C)(=O)=O)cc1` [Example 6, 3-cyclopropyl-5-methoxy-4-(4-methylsulfonylphenyl)-1H-pyrazolo[3,4-c]pyridine], the IC50 came out at 0.17 µM. The value for `Cc1cc(-c2nccc3[nH]nc(C4CC4)c23)ccc1S(=O)(=O)C1CC1` [Example 7, 3-cyclopropyl-4-(4-(cyclopropylsulfonyl)-3-methylphenyl)-1H-pyrazolo[4,3-c]pyridine] was 0.046 µM; that for `O=S(=O)(c1ccc(-c2nccc3[nH]nc(C4CC4)c23)cc1Cl)C1CC1` [Example 8, 4-(3-chloro-4-(cyclopropylsulfonyl)phenyl)-3-cyclopropyl-1H-pyrazolo[4,3-c]pyridine] was 0.37 µM; that for `CN(C)S(=O)(=O)c1ccc(-c2nccc3[nH]nc(C4CC4)c23)cc1Cl` [Example 9, 2-chloro-4-(3-cyclopropyl-1H-pyrazolo[4,3-c]pyridin-4-yl)-N,N-dimethylbenzenesulfonamide] was 0.24 µM. The value for `CS(=O)(=O)c1ccc(-c2nccc3[nH]nc(C(F)(F)F)c23)cc1` [Example 11, 4-(4-(methylsulfonyl)phenyl)-3-(trifluoromethyl)-1H-pyrazolo[4,3-c]pyridine] was 0.28 µM. The same measure for `CS(=O)(=O)c1ccc(-c2nccc3[nH]nc(C4CC4)c23)cc1C(F)F` [Example 12, 3-cyclopropyl-4-(3-(difluoromethyl)-4-(methylsulfonyl)phenyl)-1H-pyrazolo[4,3-c]pyridine]: 0.22 µM; for `CS(=O)(=O)c1ccc(-c2nccc3[nH]nc(C4CC4)c23)cc1CF` [Example 13, 3-cyclopropyl-4-(3-(fluoromethyl)-4-(methylsulfonyl)phenyl)-1H-pyrazolo[4,3-c]pyridine]: 0.11 µM. Turning to `Cc1cc(-c2nccc3[nH]cc(C4CC4)c23)ccc1S(C)(=O)=O` [Example 14, 3-cyclopropyl-4-(3-methyl-4-(methylsulfonyl)phenyl)-1H-pyrrolo[3,2-c]pyridine], the IC50 turned out to be 0.099 µM. `Cc1cc(-c2nccc3[nH]nc(C4CC4)c23)ccc1S(=O)(=O)C1COC1` [Example 15, 3-cyclopropyl-4-(3-methyl-4-(oxetan-3-ylsulfonyl)phenyl)-1H-pyrazolo[4,3-c]pyridine]: the IC50 was 0.27 µM.

Consider `Cc1cc(-c2c(C#N)ncc3[nH]nc(C4CC4)c23)ccc1S(C)(=O)=O` [Example 16, 3-cyclopropyl-4-(3-methyl-4-(methylsulfonyl)phenyl)-1H-pyrazolo[3,4-c]pyridine-5-carbonitrile], for which the concentration for half-maximal inhibition (IC50) was under 0.013 µM. With `Cc1cc(-c2nccc3[nH]nc(C(C)(F)F)c23)ccc1S(C)(=O)=O` [Example 17, 3-(1,1-difluoroethyl)-4-(3-methyl-4-(methylsulfonyl)phenyl)-1H-pyrazolo[4,3-c]pyridine], the IC50 is under 0.013 µM.
